For 29 molecules, IC50 results are on record in patent publication US20240216357A1 (SICHUAN HUIYU PHARMACEUTICAL CO., LTD., priority 2021, published 2024).

Counter-ions that a name gives are not always drawn. Like-named read-outs stand apart in the source and are kept apart here. Bounds are passed on as bounds.

In one test the target is LSD1 (Homo sapiens (Human), UniProt O60341). The test is described as follows: LSD1 enzyme activity detection (HTRF). The format is biochemical. To be noted: read-out: Inhibition of enzymatic activity of LSD1 IC50. For orientation: In TR-FRET formats the signal depends on donor and acceptor labels being close together.
The subject of another test is NCI-H1417 cells. The test is described as follows: In vitro cell proliferation detection (CellTiter-Glo, 7 days). It is filed as cell-based. The conditions noted are these: read-out: NCI-H1417 proliferation inhibition IC50.
The mark [1] stands for this setting: Homo sapiens, 168 h, NCI-H1417 cells, 7 days, CellTiter-Glo.

As for `Cc1ccc(-c2c(-c3ccc(C#N)cc3)cc3c(N4CCN(C)CC4)nccn23)cc1` [Example 190, 4-(1-(4-methylpiperazin-1-yl)-6-(p-tolyl)pyrrolo [1,2-a]pyrazin-7-yl) benzonitrile], the IC50 was 0.331 nM at LSD1 (HTRF, H3K4me1 substrate) and 1120 nM in the test with NCI-H1417 cells (setting [1]).

Regarding `CC1(N)CCN(c2nc(-c3ccc(C#N)c(F)c3)c(-c3ccc(F)c(O)c3)c3nccn23)CC1` [Example 147, 4-(5-(4-amino-4-methylpiperidin-1-yl)-8-(4-fluoro-3-hydroxyphenyl)imidazolo[1,2-c]pyrimidin-7-yl)-2-fluorobenzonitrile], the IC50 at LSD1 (HTRF, H3K4me1 substrate) was 11.5 ± 4.4 nM; in the test with NCI-H1417 cells (setting [1]), 8 nM.

In the case of `CNC1CCCN(c2nc(OC)c(-c3ccc(OC)c(F)c3)c(-c3ccc(C#N)c(F)c3)n2)C1` (stereo not shown) [Example 114, 2-fluoro-4-(5-(3-fluoro-4-methoxyphenyl)-6-methoxy-2-(3-(methylamino)piperidin-1-yl)pyrimidin-4-yl)benzonitrile hydrochloride], the IC50 was 67 nM at LSD1 and over 1000 nM in the test on NCI-H1417 cells (setting [1]).

For `COc1ccc(-c2c(OC)cc(N3CCC(N)CC3)cc2-c2ccc(C#N)c(F)c2)cc1O` [Example 267, 5′-(4-aminopiperidin-1-yl)-3-fluoro-3″-hydroxy-3′,4″-dimethoxy-[1,1′:2′,1″-terphenyl]-4-nitrile trifluoroacetate], the IC50 on LSD1 (HTRF, H3K4me1 substrate) worked out at 1 ± 0.4 nM; in the test on NCI-H1417 cells (setting [1]) it was 3.87 nM.

Turning to `N#Cc1ccc(-c2nc(N3CCC(N)CC3)n3ccnc3c2-c2ccc(C(F)(F)F)c(O)c2)cc1F` [Example 154, 4-(5-(4-aminopiperidin-1-yl)-8-(3-hydroxy-4-(trifluoromethyl)phenyl)imidazolo [1,2-c]pyrimidin-7-yl)-2-fluorobenzonitrile carboxylate], the IC50 on LSD1 (HTRF, H3K4me1 substrate) was found to be 0.5 ± 0.1 nM; in the test on NCI-H1417 cells (setting [1]), 0.959 nM.

Consider `N#Cc1ccc(-c2nc(N3CCC(N)CC3)cc(O)c2-c2ccc(F)c(O)c2)cc1F` [Example 58, 4-(6-(4-aminopiperidin-1-yl)-3-(4-fluoro-3-hydroxyphenyl)-4-hydroxypyridin-2-yl)-2-fluorobenzonitrile], for which the IC50 on LSD1 (HTRF, H3K4me1 substrate) came to 1.3 ± 0.4 nM; in the test with NCI-H1417 cells (setting [1]) it was 7.26 nM.

On to `CNC1CCN(c2nc(-c3ccc(C#N)c(F)c3)c(-c3ccc(OC)c(O)c3)c3nccn23)CC1` [Example 138, 2-fluoro-4-(8-(3-hydroxy-4-methoxyphenyl)-5-(4-(methylamino)piperidin-1-yl)imidazolo[1,2-c]pyrimidin-7-yl)benzonitrile hydrochloride], for which the IC50 amounted to 0.1 ± 0.05 nM at LSD1 (HTRF, H3K4me1 substrate) and 0.305 nM in the test with NCI-H1417 cells (setting [1]).

On to `Cc1ccc(-c2c(-c3ccc(C#N)c(F)c3)nc(N3CCC(N)CC3)c(C)c2O)cc1O` [Example 65, 4-(6-(4-aminopiperidin-1-yl)-4-hydroxy-3-(3-hydroxy-4-methylphenyl)-5-methylpyridin-2-yl)-2-fluorobenzonitrile hydrochloride], for which the IC50 at LSD1 (HTRF, H3K4me1 substrate) was determined as 0.7 ± 0.4 nM; in the test with NCI-H1417 cells (setting [1]), 0.95 nM.

For the molecule `Cc1ccc(-c2c(-c3ccc(C#N)cc3)cc3c(N4CCC(N)CC4)nncn23)cc1` [Example 196, 4-(1-(4-aminopiperidin-1-yl)-6-(p-tolyl)pyrrolo[1,2-d][1,2,4]triazin-7-yl)benzonitrile hydrochloride], the IC50 at LSD1 is 37.7 nM; in the test on NCI-H1417 cells (setting [1]) it was 656 nM.

On to `COc1ccc(-c2c(O)cc(N3CCC(N)CC3)nc2-c2ccc(C#N)c(F)c2)cc1C#N` [Example 47, 4-(6-(4-aminopiperidin-1-yl)-3-(3-cyano-4-methoxyphenyl)-4-hydroxypyridin-2-yl)-2-fluorobenzonitrile], for which the IC50 stood at 2.6 ± 1.3 nM on LSD1 (HTRF, H3K4me1 substrate) and 106 nM in the test on NCI-H1417 cells (setting [1]).

`N#Cc1ccc(-c2nc(N3C4CCC3CC(N)C4)n3ccnc3c2-c2ccc(F)c(O)c2)cc1F` (stereo not shown) [Example 157, 4-(5-(3-amino-8-azabicyclo [3.2.1]octane-8-yl)-8-(4-fluoro-3-hydroxyphenyl)imidazolo [1,2-c]pyrimidin-7-yl)-2-fluorobenzonitrile hydrochloride]: the IC50 at LSD1 (HTRF, H3K4me1 substrate) was found to be 0.3 ± 0.3 nM; with NCI-H1417 cells (setting [1]) it was 2.05 nM.

For the molecule `O=C(c1cc(CN[C@@H]2C[C@H]2c2ccc(F)cc2)nc(-c2ccc(-n3cccn3)cc2)n1)N1CCOCC1` [Example 229], the IC50 was 13 nM on LSD1 (HTRF, H3K4me1 substrate) and 2.05 nM with NCI-H1417 cells (setting [1]).

For `CS(=O)(=O)N1CCN(C(=O)c2cc(CN[C@@H]3C[C@H]3c3ccc(F)cc3)nc(-c3ccccc3)n2)CC1` [Example 1], the IC50 was found to be 186 ± 69.6 nM on LSD1 (HTRF, H3K4me1 substrate) and 11.3 nM with NCI-H1417 cells (NCI-H1417 cells, 7 days, CellTiter-Glo).

`COc1ccc(-c2c(OCC3CC3)cc(N3CCC(N)CC3)nc2-c2ccc(C#N)c(F)c2)cc1O` [Example 108, 4-(6-(4-aminopiperidin-1-yl)-4-(cyclopropylmethoxy)-3-(3-hydroxy-4-methoxyphenyl)pyridin-2-yl)-2-fluorobenzonitrile hydrochloride]: the IC50 on LSD1 (HTRF, H3K4me1 substrate) was determined as 1.5 ± 0.7 nM; in the test on NCI-H1417 cells (setting [1]), 4.02 nM.

Take `COc1ccc(-c2c(OC(F)F)cc(N3CCC(N)CC3)nc2-c2ccc(C#N)c(F)c2)cc1O` [Example 106, 4-(6-(4-aminopiperidin-1-yl)-4-(difluoromethoxy)-3-(3-hydroxy-4-methoxyphenyl)pyridin-2-yl)-2-fluorobenzonitrile]: the IC50 is 1.2 ± 0.7 nM on LSD1 (HTRF, H3K4me1 substrate) and 0.594 nM in the test on NCI-H1417 cells (setting [1]).

As for `O=C(c1cc(CN[C@@H]2C[C@H]2c2ccc(F)cc2)nc(-c2ccc(-n3ccnn3)cc2)n1)N1CCC(F)(F)CC1` [Example 248, (2-(4-(1H-1,2,3-triazol-1-yl)phenyl)-6-((((1R,2S)-2-(4-fluorophenyl)cyclo-propyl)amino)methyl)pyrimidin-4-yl)(4,4-difluoropiperidin-1-yl) methanone], the IC50 at LSD1 (HTRF, H3K4me1 substrate) was found to be 140 nM; in the test with NCI-H1417 cells (setting [1]), 2.98 nM.

Regarding “5′-(4-aminopiperidin-1l-yl)-3-fluoro-3′,3′-dihydroxy-4′-methyl-[1,1′:2′,1′-triphenyl]-4-carbonitrile [Example 266]”, the IC50 at LSD1 stood at 0.7 ± 0.004 nM; with NCI-H1417 cells, 0.48 nM.

On to `COc1ccc(-c2cnc(N3CC(N)C3)c(C#N)c2-c2ccc(C#N)c(F)c2)cc1O` [Example 82, 2-(3-aminoazetidin-1-yl)-4-(4-cyano-3-fluorophenyl)-5-(3-hydroxy-4-methoxyphenyl) nicotinonitrile], for which the IC50 on LSD1 (HTRF, H3K4me1 substrate) came to 12.9 ± 0.2 nM; in the test on NCI-H1417 cells (setting [1]), 72.4 nM.

`Cc1ccc(-c2c(-c3ccc(C#N)c(F)c3)nc(N(C)CCCN)n3ccnc23)cc1O` [Example 146, 4-(5-((3-aminopropyl) (methyl)amino)-8-(3-hydroxy-4-methylphenyl)imidazolo[1,2-c]pyrimidin-7-yl)-2-fluorobenzonitrile]: the IC50 on LSD1 (HTRF, H3K4me1 substrate) was 0.5 ± 0.2 nM; in the test with NCI-H1417 cells (setting [1]), 8.9 nM.

With `COc1ccc(-c2nc(CN[C@@H]3C[C@H]3c3ccc(F)cc3)cc(C(=O)N3CCOCC3)n2)cc1O` [Example 241], the IC50 at LSD1 (HTRF, H3K4me1 substrate) was 26.9 nM; in the test on NCI-H1417 cells (setting [1]) it was 12.6 nM.

`Cc1noc2cc(-c3nc(CN[C@@H]4C[C@H]4c4ccc(F)cc4)cc(C(=O)N4CCN(S(C)(=O)=O)CC4)n3)c(F)cc12` [Example 235]: the IC50 came out at 285 nM on LSD1 (HTRF, H3K4me1 substrate) and 98.3 nM with NCI-H1417 cells (setting [1]).

For `N#Cc1ccc(-c2nc(N3CCC(N)CC3)cc(O)c2-c2ccc(C#N)c(F)c2)cc1F` [Example 48, 4,4′-(6-(4-aminopiperidin-1-yl)-4-hydroxypyridine-2,3-diyl)bis(2-fluorobenzonitrile)], the IC50 turned out to be 57.8 nM on LSD1 (HTRF, H3K4me1 substrate) and 290 nM with NCI-H1417 cells (setting [1]).

As to `COc1ccc(-c2c(-c3ccc(C#N)c(F)c3)nc(N3CC4CCC3CC4N)n3ccnc23)cc1F` (stereo not shown) [Example 170, 4-(5-(5-amino-2-azabicyclo[2.2.2]octane-2-yl)-8-(3-fluoro-4-methoxyphenyl)imidazolo[1,2-c]pyrimidin-7-yl)-2-fluorobenzonitrile hydrochloride], the IC50 at LSD1 (HTRF, H3K4me1 substrate) is 13.2 nM; with NCI-H1417 cells (setting [1]), 18.3 nM.

For `COc1ccc(-c2c(O)cc(N3CCC(N(C)C)CC3)nc2-c2ccc(C#N)c(F)c2)cc1F` [Example 56, 4-(6-(4-(dimethylamino)piperidin-1-yl)-3-(3-fluoro-4-methoxyphenyl)-4-hydroxypyridin-2-yl)-2-fluorobenzonitrile], the IC50 on LSD1 (HTRF, H3K4me1 substrate) came out at 2.9 ± 1.2 nM; with NCI-H1417 cells (setting [1]) it was 4.88 nM.

On to `COc1ccc(-c2nc(CN[C@@H]3C[C@H]3c3ccc(F)cc3)cc(C(=O)N3CCC(F)(F)CC3)n2)cc1O` [Example 247], for which the IC50 at LSD1 (HTRF, H3K4me1 substrate) was 65.8 nM; in the test with NCI-H1417 cells (setting [1]), 6.51 nM.

As to `CC(C)(O)COc1ccc(-c2c(O)cc(N3CCC(N)CC3)nc2-c2ccc(C#N)c(F)c2)cc1F` [Example 38, 4-(6-(4-aminopiperine-1-yl)-3-(3-fluoro-4-(2-hydroxy-2-methylpropoxy)phenyl)-4-hydroxypyridin-2-yl)-2-fluorobenzonitrile hydrochloride], the IC50 was determined as 57.6 nM on LSD1 (HTRF, H3K4me1 substrate) and 179 nM in the test on NCI-H1417 cells (setting [1]).

For `COc1ccc(-c2c(O)cc(N3CCN(C)CC3)nc2-c2ccc(C#N)c(F)c2)cc1F` [Example 15, 2-fluoro-4-(3-(3-fluoro-4-methoxyphenyl)-4-hydroxy-6-(4-methylpiperazin-1-yl)pyridin-2-yl)benzonitrile], the IC50 on LSD1 (HTRF, H3K4me1 substrate) amounted to 49.9 nM; in the test with NCI-H1417 cells (setting [1]) it was 104 nM.

In the case of `N#Cc1ccc(-c2cc(C(=O)N3C4CCC3CC(N)C4)sc2-c2ccc3cc[nH]c3c2)cc1F` (stereo not shown) [Example 200, 4-(5-(3-amino-8-azabicyclo [3.2.1]octane-8-carbonyl)-2-(1-hydro-indol-6-yl)thiophen-3-yl)-2-fluorobenzonitrile], the IC50 at LSD1 (HTRF, H3K4me1 substrate) stood at 0.69 nM; in the test on NCI-H1417 cells (setting [1]) it was 34 nM.

Take `CNC1CCCN(c2ccnn3c(-c4ccc(C)cc4)c(-c4ccc(C#N)cc4)cc23)C1` (stereo not shown) [Example 197, 4-(4-(3-(methylamino)piperidin-1-yl)-7-(p-tolyl)pyrrolo[1,2-b]pyridazin-6-yl]benzonitrile hydrochloride]: the IC50 was 9.44 ± 5.96 nM at LSD1 and 24.2 nM in the test on NCI-H1417 cells (setting [1]).
